Values quoted from earlier work in patent US6329550A, “Amidomalonamides useful as inhibitors of MMP of matrix metalloproteinase” (Aventis Pharmaceuticals Inc., priority 1999, dated 2001).

Test system: B16-BL6 murine melanoma
Conditions: intraperitoneal administration; lung colonies produced by intravenous injection of B16-BL6 murine melanoma in C57BL/6N mice

For `CNC(=O)[C@H](Cc1ccccc1)NC(=O)[C@H](CC(C)C)[C@H](CSc1cccs1)C(=O)NO` [batimastat], the “growth and metastatic spread and number of lung colonies” value is listed as “significant inhibition”.
